What was measured:
[1] = Functional panel of 47 representative targets; conditions: at 10 µM
[2] = system: SDMA; experiment: Immunoblot of SDMA (PRMT5-dependent mark); assay type: cell-based; conditions: 96 h, HCT116 MTAP−/− cells
[3] = target: hERG (Homo sapiens, UniProt Q12809); experiment: Mini-profiling panel, ion channel; assay type: cell-based; conditions: Ion Channels; read-out: hERG Blocker IC50
[4] = target: AVPR1A (Homo sapiens, UniProt P37288); experiment: Mini-profiling panel, GPCR; assay type: cell-based; conditions: GPCR Targets
Sequence of AVPR1A (P37288 whole entry, species assumed): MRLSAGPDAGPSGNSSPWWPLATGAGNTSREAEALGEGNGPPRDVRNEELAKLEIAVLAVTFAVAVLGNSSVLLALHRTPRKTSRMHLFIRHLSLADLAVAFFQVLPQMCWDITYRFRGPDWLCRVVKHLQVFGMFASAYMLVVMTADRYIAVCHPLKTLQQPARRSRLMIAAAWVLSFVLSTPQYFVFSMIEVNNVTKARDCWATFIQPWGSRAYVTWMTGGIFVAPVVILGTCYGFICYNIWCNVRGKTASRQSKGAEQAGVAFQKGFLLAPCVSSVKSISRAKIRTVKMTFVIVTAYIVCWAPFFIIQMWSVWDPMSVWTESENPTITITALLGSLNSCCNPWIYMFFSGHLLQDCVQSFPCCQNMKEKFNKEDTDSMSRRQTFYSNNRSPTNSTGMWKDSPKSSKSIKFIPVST

[5] = target: ADRA2A (Homo sapiens, UniProt P08913); experiment: Mini-profiling panel, GPCR; assay type: cell-based
Sequence of ADRA2A (P08913 whole entry, species assumed): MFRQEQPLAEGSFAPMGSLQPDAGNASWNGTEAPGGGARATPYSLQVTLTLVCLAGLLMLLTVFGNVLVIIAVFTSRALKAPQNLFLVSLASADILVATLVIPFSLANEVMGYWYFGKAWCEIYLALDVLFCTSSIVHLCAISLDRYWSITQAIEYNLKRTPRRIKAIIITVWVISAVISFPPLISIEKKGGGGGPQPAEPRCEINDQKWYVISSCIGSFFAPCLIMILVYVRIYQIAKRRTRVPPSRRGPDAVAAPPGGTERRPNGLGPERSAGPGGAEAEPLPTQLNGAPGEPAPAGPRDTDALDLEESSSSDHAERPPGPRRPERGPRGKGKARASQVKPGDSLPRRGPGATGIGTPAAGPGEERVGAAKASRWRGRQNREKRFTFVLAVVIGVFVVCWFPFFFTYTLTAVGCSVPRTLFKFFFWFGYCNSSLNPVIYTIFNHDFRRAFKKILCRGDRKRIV
Method: (§1) Further insight into selectivity was evaluated in a functional panel of 47 representative targets closely related to human life activities, including G protein‐coupled receptors, transporters, ion channels, kinases, nuclear hormone receptor targets, and nonkinase enzymes (Table S3).

[6] = target: CHRM1 (Homo sapiens, UniProt P11229); experiment: Mini-profiling panel, GPCR; assay type: cell-based
Sequence of CHRM1 (P11229 whole entry, species assumed): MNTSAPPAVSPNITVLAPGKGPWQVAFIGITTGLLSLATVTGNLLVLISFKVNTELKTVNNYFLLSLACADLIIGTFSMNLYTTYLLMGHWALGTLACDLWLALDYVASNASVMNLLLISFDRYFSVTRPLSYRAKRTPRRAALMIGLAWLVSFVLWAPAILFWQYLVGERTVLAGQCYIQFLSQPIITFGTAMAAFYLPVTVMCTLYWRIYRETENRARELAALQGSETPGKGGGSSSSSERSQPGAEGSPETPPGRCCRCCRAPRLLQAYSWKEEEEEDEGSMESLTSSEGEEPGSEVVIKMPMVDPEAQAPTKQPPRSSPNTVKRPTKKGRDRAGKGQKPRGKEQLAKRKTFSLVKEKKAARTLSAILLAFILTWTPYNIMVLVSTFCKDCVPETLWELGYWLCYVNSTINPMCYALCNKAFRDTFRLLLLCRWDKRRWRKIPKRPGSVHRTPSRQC
Method: as §1

[7] = target: DRD2S (Homo sapiens, UniProt P14416); experiment: Mini-profiling panel, GPCR; assay type: cell-based
Sequence of DRD2S (P14416 1-414 isoform P14416-2): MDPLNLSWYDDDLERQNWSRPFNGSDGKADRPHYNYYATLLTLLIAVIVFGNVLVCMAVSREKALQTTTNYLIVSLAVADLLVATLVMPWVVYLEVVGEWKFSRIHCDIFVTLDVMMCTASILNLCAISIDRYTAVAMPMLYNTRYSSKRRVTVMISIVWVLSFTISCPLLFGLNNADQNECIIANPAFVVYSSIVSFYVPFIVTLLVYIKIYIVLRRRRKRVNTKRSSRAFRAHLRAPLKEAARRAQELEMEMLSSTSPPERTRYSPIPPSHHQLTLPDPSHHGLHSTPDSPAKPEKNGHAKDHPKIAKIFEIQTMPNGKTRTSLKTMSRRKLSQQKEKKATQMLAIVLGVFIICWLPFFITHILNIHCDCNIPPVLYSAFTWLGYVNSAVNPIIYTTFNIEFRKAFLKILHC
Method: as §1

[8] = target: CHRM2 (Homo sapiens, UniProt P08172); experiment: Mini-profiling panel, GPCR; assay type: cell-based
Sequence of CHRM2 (P08172 whole entry, species assumed): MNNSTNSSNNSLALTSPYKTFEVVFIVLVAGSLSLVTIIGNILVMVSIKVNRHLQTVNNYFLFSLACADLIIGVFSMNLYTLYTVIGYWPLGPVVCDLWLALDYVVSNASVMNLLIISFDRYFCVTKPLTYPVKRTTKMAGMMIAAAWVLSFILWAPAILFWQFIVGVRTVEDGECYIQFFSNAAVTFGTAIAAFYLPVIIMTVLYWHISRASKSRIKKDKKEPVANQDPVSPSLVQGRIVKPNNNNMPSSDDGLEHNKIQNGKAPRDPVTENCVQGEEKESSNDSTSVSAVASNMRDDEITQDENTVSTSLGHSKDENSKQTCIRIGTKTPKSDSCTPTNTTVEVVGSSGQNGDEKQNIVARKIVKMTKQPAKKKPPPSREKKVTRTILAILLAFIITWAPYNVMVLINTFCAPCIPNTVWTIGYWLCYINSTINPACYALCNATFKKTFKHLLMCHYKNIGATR
Method: as §1

[9] = target: OPRK1 (Homo sapiens, UniProt P41145); experiment: Mini-profiling panel, GPCR; assay type: cell-based
Sequence of OPRK1 (P41145 whole entry, species assumed): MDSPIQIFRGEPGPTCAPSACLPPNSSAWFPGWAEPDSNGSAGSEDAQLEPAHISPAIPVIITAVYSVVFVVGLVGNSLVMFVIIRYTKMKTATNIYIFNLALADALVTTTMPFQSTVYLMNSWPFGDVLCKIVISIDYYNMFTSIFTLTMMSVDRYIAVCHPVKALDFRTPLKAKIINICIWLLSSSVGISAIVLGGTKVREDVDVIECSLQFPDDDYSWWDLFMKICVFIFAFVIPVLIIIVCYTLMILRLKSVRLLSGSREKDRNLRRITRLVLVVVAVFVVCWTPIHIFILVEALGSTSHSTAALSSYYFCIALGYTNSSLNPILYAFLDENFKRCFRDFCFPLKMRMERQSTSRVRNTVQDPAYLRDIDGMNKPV
Method: as §1

[10] = system: HCT116 MTAP−/− subcutaneous xenograft; experiment: Xenograft efficacy study, monotherapy; assay type: in vivo, mice
Method: An efficacy study in an HCT116 MTAP ^−/− subcutaneous xenograft mouse model was performed to evaluate the antitumor effect of SCR‐7952, with once daily (q.d.) oral dosing of 0.25, 0.5, 1.0, or 3.0 mg/kg, respectively.
Nu/Nu female mice (6–12 weeks old; Beijing Vital River Laboratory Animal Technology Co., Ltd.) were used for in vivo xenograft studies. All experimental procedures involving animals and their care were in accordance with the State Council Regulations for Laboratory Animal Management (Enacted in 1988) and approved by the Institutional Animal Care and Use Committee of Jiangsu Simcere Pharmaceutical Co., Ltd. (IACUC; Approval No. AP‐056).
(§2) Subcutaneous injections of HCT116 MTAP ^−/− cells were performed (5 × 10^6 cells in 100 µL) into Nu/Nu female mice. Mice were observed daily for the development of tumors. Six days after tumor implantation, mice were randomly distributed into different groups. SCR‐7952, AG‐270, JNJ‐64619178, or vehicle (water with 5% N‐methylpyrrolidone and 10% solutol HS‐15) were daily administrated by oral gavage. Tumor volumes and body weights were recorded three times per week. Tumor volumes were measured in two dimensions using a caliper, and the volume was expressed in mm^3 using the formula: V = (L × W × W)/2, where V is tumor volume, L is tumor length (the longest tumor dimension), and W is tumor width (perpendicular to L). The tumor growth inhibition rate (TGI%) of each dosing group was calculated according to the following formula: %TGI = (1 − (V t(treatment group) − V 0(treatment group))/(V t(vehicle group) − V 0(vehicle group))) × 100%, where V t is average tumor volume of a dosing group on a specific day, V 0 is average tumor volume of a dosing group on the initial day. At the end of the study, plasma and tumor tissues were collected and stored at −80°C for further measurement.

[11] = target: CAV1.2 (Homo sapiens, UniProt Q13936); experiment: cell-based
[12] = target: AR (Homo sapiens, UniProt P10275); experiment: Mini-profiling panel, nuclear hormone receptor; assay type: cell-based
Sequence of AR (P10275 whole entry): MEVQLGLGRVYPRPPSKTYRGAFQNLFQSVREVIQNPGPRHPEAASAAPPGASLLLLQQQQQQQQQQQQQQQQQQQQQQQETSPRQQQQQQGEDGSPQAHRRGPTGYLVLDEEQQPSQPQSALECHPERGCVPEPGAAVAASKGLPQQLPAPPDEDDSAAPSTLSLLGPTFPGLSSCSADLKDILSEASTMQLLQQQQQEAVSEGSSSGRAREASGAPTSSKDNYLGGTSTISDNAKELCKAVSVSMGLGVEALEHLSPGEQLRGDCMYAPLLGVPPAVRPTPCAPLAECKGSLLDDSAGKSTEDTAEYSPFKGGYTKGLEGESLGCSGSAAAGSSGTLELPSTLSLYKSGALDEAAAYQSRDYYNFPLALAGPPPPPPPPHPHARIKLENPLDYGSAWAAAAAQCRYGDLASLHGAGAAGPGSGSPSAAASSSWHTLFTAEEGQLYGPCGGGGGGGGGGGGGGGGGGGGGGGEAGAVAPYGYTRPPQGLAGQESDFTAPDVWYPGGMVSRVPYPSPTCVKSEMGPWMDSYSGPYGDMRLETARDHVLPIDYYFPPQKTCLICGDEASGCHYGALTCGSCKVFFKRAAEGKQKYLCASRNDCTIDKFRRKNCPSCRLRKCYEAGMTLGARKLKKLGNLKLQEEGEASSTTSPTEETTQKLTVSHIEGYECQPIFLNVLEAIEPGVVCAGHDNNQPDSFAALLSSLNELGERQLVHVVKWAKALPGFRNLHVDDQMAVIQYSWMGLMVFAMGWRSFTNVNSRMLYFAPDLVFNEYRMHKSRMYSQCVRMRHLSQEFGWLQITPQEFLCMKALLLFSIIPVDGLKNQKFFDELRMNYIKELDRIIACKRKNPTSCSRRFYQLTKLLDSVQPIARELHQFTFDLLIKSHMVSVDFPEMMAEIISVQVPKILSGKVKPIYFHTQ
Method: as §1

[13] = target: MAOA (Homo sapiens, UniProt P21397); experiment: Mini-profiling panel, non-kinase enzyme; assay type: biochemical; conditions: Non-Kinase Enzymes; read-out: MAOA Inhibitor IC50
[14] = system: HCT116 MTAP−/− xenograft; experiment: Xenograft combination treatment study; assay type: in vivo, mice; conditions: SCR-7952 0.3 mg/kg alone
Method: as §2

[15] = system: FANCA; experiment: RT-PCR of FANCA and DI-containing transcripts; assay type: cell-based; conditions: 72 h
[16] = target: AChE (Homo sapiens, UniProt P22303); experiment: Mini-profiling panel, non-kinase enzyme; assay type: biochemical; conditions: Non-Kinase Enzymes; read-out: AChE Inhibitor IC50
[17] = target: ADRB2 (Homo sapiens, UniProt P07550); experiment: Mini-profiling panel, GPCR; assay type: cell-based; conditions: GPCR Targets
Sequence of ADRB2 (P07550 whole entry, species assumed): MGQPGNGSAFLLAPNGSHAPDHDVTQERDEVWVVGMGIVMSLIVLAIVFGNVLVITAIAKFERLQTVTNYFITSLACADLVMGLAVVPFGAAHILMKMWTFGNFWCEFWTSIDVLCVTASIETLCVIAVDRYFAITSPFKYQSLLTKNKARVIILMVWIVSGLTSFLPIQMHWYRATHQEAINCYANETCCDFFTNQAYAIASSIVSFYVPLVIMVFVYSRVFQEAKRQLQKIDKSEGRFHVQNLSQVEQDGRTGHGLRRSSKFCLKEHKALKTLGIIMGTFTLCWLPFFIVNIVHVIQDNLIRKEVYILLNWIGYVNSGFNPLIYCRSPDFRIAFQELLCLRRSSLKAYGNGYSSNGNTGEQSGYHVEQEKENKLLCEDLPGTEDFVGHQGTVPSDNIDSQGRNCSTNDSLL

[18] = target: PDE3A (Homo sapiens, UniProt Q14432); experiment: Mini-profiling panel, non-kinase enzyme; assay type: biochemical; conditions: Non-Kinase Enzymes; read-out: PDE3A Inhibitor IC50
[19] = target: GR (Homo sapiens, UniProt P04150); experiment: Mini-profiling panel, nuclear hormone receptor; assay type: cell-based; conditions: NHR Targets
Sequence of GR (P04150 whole entry): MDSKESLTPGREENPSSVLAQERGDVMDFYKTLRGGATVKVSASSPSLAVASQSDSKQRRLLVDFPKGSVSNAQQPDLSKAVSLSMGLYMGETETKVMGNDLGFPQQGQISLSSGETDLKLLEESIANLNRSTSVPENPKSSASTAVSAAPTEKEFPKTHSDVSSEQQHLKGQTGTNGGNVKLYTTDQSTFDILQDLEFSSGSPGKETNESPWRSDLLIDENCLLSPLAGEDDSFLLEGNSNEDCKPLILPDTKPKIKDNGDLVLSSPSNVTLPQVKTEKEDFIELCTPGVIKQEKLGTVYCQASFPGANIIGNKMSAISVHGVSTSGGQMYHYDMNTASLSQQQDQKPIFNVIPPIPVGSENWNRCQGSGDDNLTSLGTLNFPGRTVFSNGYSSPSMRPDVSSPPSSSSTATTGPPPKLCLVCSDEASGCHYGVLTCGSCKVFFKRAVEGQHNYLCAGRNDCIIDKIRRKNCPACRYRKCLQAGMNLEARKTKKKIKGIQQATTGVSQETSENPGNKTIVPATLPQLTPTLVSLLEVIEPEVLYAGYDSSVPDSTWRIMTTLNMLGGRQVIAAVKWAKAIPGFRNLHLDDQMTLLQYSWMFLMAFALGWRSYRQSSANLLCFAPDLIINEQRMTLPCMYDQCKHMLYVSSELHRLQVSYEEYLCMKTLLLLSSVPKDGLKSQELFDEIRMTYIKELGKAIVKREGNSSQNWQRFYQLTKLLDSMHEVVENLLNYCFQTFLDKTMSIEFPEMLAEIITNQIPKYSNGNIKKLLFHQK

[20] = target: ROCK1 (Homo sapiens, UniProt Q13464); experiment: Mini-profiling panel, kinase; assay type: biochemical; conditions: Kinases; read-out: ROCK1 Inhibitor IC50
[21] = system: KP4 (MTAP-deleted pancreatic cancer cell line); experiment: Combination proliferation assay; assay type: cell-based; conditions: KP4 cells, 8 days
Method: Cells were plated in 96‐well cell culture plates and allowed to attach overnight at 37°C in 5% CO2. […] The final concentration of DMSO was 0.1% in media. Cell proliferation was measured using CellTiter‐Glo Cell Viability Assay (Promega). The IC50 values were calculated using the GraphPad Prism 9. Drug combination effects were analyzed using Combenefit software.[45]

Cn1cnc2c(=O)n(-c3cccnc3C3CC3)c3cc(Cl)ccc3c21 [SCR‐7952, 7‐chloro‐5‐(2‐cyclopropylpyridin‐3‐yl)‐1‐methyl‐1,5‐dihydro‐4H‐imidazo[4,5‐c]quinolin‐4‐one]
agonistic or antagonistic activities on 47 targets [1]: did not exhibit significant pharmacological effects | SDMA level (immunoblot) [2]: Significant dose‐dependent reduction | IC50 [3]: > 10 µM | EC50 ([4]; read-out: AVPR1A Agonism EC50): > 10 µM | IC50 ([4]; read-out: AVPR1A Antagonism IC50): > 10 µM | EC50 [5]: > 10 µM | IC50 [5]: > 10 µM | EC50 [6]: > 10 µM | IC50 [6]: > 10 µM | EC50 [7]: > 10 µM | IC50 [7]: > 10 µM | EC50 [8]: > 10 µM | IC50 [8]: > 10 µM | EC50 [9]: > 10 µM | IC50 [9]: > 10 µM | TGI ([10]; SCR-7952 0.5 mg/kg oral q.d.): 60.0% | TGI ([10]; SCR-7952 1 mg/kg oral q.d.): 62.7% | TGI ([10]; SCR-7952 3.0 mg/kg oral q.d.): 82.9% | IC50 [11]: > 10 µM | EC50 [12]: > 10 µM | IC50 [12]: > 10 µM | IC50 [13]: > 10 µM | TGI [14]: 55.0% | expression of FANCA DI-containing transcripts [15]: significantly upregulated | total levels of FANCA mRNA [15]: reduced | IC50 [16]: > 10 µM | EC50 ([17]; read-out: ADRB2 Agonism EC50): > 10 µM | IC50 ([17]; read-out: ADRB2 Antagonism IC50): > 10 µM | IC50 [18]: > 10 µM | EC50 ([19]; read-out: GR Agonism EC50): > 10 µM | IC50 ([19]; read-out: GR Antagonism IC50): > 10 µM | IC50 [20]: > 10 µM | interaction in combination with JNJ-64619178 on KP4 [21]: synergistic effect was also observed

From article PMC11413503, “SCR‐7952, a highly selective MAT2A inhibitor, demonstrates synergistic antitumor activities in combination with the S‐adenosylmethionine‐competitive or the methylthioadenosine‐cooperative protein arginine methyltransferase 5 inhibitors in methylthioadenosine phosphorylase‐deleted tumors” (MedComm, 2024)
